Measurements taken from publication PMC8887546, “Design and Synthesis of Brain Penetrant Glycopeptide Analogues of PACAP With Neuroprotective Potential for Traumatic Brain Injury and Parkinsonism” (Frontiers in drug discovery, 2022).

Assays:
[1] = test system: C57BL/6 mice, diffuse TBI; assay: Sleep-wake parameters (piezoelectric sleep cage) after TBI; format: in vivo, mouse; conditions: 10 mg/kg i.p. 30 min prior to TBI
Method: 30 min prior to TBI or sham injury, mice were randomly assigned to a therapeutic group and received an intraperitoneal injection of 2LS80Mel (10 mg/kg) or sterile saline (0.25 ml). Groups were as follows: TBI-2LS80Mel n = 17; TBI-vehicle n = 17; sham n = 22 (vehicle n = 11, 2LS80Mel n = 11).
Mice (19–24 g) were subjected to midline fluid percussion injury (mFPI) consistent with methods previously described ([Lifshitz, 2009]; [Harrison et al., 2014]; [Rowe et al., 2014a]; [Rowe et al., 2014b]; [Rowe et al., 2014c]). Mice were anesthetized using 5% isoflurane in 100% oxygen for 5 min and the head of the mouse was placed in a stereotaxic frame with continuously delivered isoflurane at 2.5% via nosecone. […] The injury hub was closed using a Luer-Loc cap and mice were placed in a heated recovery cage and monitored until they were ambulatory before being returned to their respective sleep cages.
For injury induction 24 h post-surgery, mice were re-anesthetized with 5% isoflurane delivered for 3 min. […] Injured mice were monitored for presence of a forearm fencing response and righting reflex times were recorded as indicators of injury severity ([Hosseini and Lifshitz, 2009]). […] After spontaneously righting, mice were placed in a heated recovery cage and monitored until they were ambulatory (approximately 5–15 min) before being returned to their piezoelectric sleep cage (see below). […]

[2] = test system: Sprague Dawley rats, 6-OHDA lesion; assay: Unbiased stereology of TH-positive neurons in SNc (study 1); format: in vivo, rat; conditions: mild lesion (25%), 15 mg/kg i.p. 6 h prior to and 24 h post-lesion
Method: Rats were treated with 2LS98Lac or saline (vehicle) as outlined in the Schemes in Figures 9A,B via intraperitoneal (i.p.) injection (15 mg/kg). All animals were made hemi-parkinsonian with unilateral, striatal 6-hydroxydopamine (Sigma Aldrich, St. Louis, MO) injections. After surgery, behavioral assessments were done at 2- and 4-weeks post-surgery. 24 h after the last test animals were either euthanized and whole brains were harvested for future biochemical analysis or perfused and brains collected for immunohistochemistry and stereological assessment of tyrosine hydroxylase-positive (TH+) cells remaining in the SNc. In study 1: n = 16 each group were included, and all underwent the behavioral analysis: n = 16, and for the stereology in the SNc, n = 8 each group was used. In study 2: n = 23 each group were included. […]
Stereological probes were applied using a Zeiss Imager M2 microscope (Carl Zeiss, Jena, Germany) equipped with StereoInvestigator software (MBF Bioscience, VT, United States) according to previously published methods ([Corenblum et al., 2015]; [Anandhan et al., 2021]). Using the optical fractionator probe, cells were counted under the ×63 oil immersion objective by a blinded observer. TH+ cells were counted in sections 480 μm apart using a grid size of 170 × 100 μm and counting frame size of 75 × 75 μm. […]

SMILES	Cumulative minutes slept in the first 6 h post-injury [1]	Sleep in the first dark period [1]	TH-positive neurons in SNc, lesioned vs intact side [2]
CC[C@H](C)[C@H](NC(=O)CNC(=O)[C@H](CC(=O)O)NC(=O)[C@H](CO)NC(=O)[C@@H](N)Cc1c[nH]cn1)C(=O)N[C@@H](Cc1ccccc1)C(=O)N[C@H](C(=O)N[C@@H](CC(=O)O)C(=O)N[C@@H](CO)C(=O)N[C@@H](Cc1ccc(O)cc1)C(=O)N[C@@H](CO)C(=O)N[C@@H](CCCNC(=N)N)C(=O)N[C@@H](Cc1ccc(O)cc1)C(=O)N[C@@H](CCCNC(=N)N)C(=O)N[C@@H](CCCCN)C(=O)N[C@@H](CCC(N)=O)C(=O)N[C@@H](CC(C)C)C(=O)N[C@@H](C)C(=O)N[C@H](C(=O)N[C@@H](CCCCN)C(=O)N[C@@H](CCCCN)C(=O)N[C@@H](Cc1ccc(O)cc1)C(=O)N[C@@H](CC(C)C)C(=O)N[C@@H](C)C(=O)N[C@@H](C)C(=O)N[C@H](C(=O)N[C@@H](CC(C)C)C(=O)N[C@@H](CO[C@@H]1O[C@H](CO[C@H]2O[C@H](CO)[C@H](O)[C@H](O)[C@H]2O)[C@@H](O)[C@H](O)[C@H]1O)C(N)=O)C(C)C)C(C)C)[C@@H](C)O [Compound 2LS80Mel]	slept comparable minutes to uninjured sham animals	prevented this injury-induced increase in sleep	–
[2H]C([2H])([2H])C([2H])(C([2H])([2H])[2H])[C@]([2H])(NC(=O)[C@H](C)NC(=O)[C@H](C)NC(=O)[C@H](CC(C)C)NC(=O)[C@H](Cc1ccc(O)cc1)NC(=O)[C@H](CCCCN)NC(=O)[C@H](CCCCN)NC(=O)[C@@]([2H])(NC(=O)[C@H](C)NC(=O)[C@H](CC(C)C)NC(=O)[C@H](CCC(N)=O)NC(=O)[C@H](CCCCN)NC(=O)[C@H](CCCNC(=N)N)NC(=O)[C@H](Cc1ccc(O)cc1)NC(=O)[C@H](CCCNC(=N)N)NC(=O)[C@H](CO)NC(=O)[C@H](Cc1ccc(O)cc1)NC(=O)[C@H](CO)NC(=O)[C@H](CC(=O)O)NC(=O)[C@@H](NC(=O)[C@H](Cc1ccccc1)NC(=O)[C@@H](NC(=O)CNC(=O)[C@H](CC(=O)O)NC(=O)[C@H](CO)NC(=O)[C@@H](N)Cc1c[nH]cn1)[C@@H](C)CC)[C@@H](C)O)C([2H])(C([2H])([2H])[2H])C([2H])([2H])[2H])C(=O)N[C@@H](CC(C)C)C(=O)N[C@@H](CO[C@@H]1O[C@H](CO)[C@@H](O[C@@H]2O[C@H](CO)[C@H](O)[C@H](O)[C@H]2O)[C@H](O)[C@H]1O)C(N)=O [Compound 2LS98Lac]	–	–	neuronal cell death was attenuated
